From ChEMBL document CHEMBL1201862, “PubChem BioAssay data set” (2004)
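Step 1: Grow cells in 96-well plates. Step 2: Expose to compound for 48 hours at 5 concentrations. Step 3: Interpolate endpoints linearly; if unreached, use highest concentration. At the GI50, growth is halved.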 Calls of active or inactive are those of the source. No stated cut-off is given here; in the data, active = GI50 up to about 1.1 µM and inactive = higher.

Key:
Test in all cases: NCI tumour cell line growth inhibition, 48 h
UACC-62 = test system: UACC-62
SW-620 = test system: SW-620
CCRF-CEM = test system: CCRF-CEM
SK-MEL-2 = test system: SK-MEL-2
MDA-MB-231 = test system: MDA-MB-231
SK-OV-3 = test system: SK-OV-3
OVCAR-8 = test system: OVCAR-8
SNB-75 = test system: SNB-75
U-251 = test system: U-251
A549 = test system: A549
UACC-257 = test system: UACC-257
NCI-H522 = test system: NCI-H522
Hs-578T = test system: Hs-578T
SK-MEL-5 = test system: SK-MEL-5
HCT-15 = test system: HCT-15
DU-145 = test system: DU-145
K562 = test system: K562
OVCAR-3 = test system: OVCAR-3

| SMILES | GI50 (UACC-62) | GI50 (SW-620) | GI50 (CCRF-CEM) | GI50 (SK-MEL-2) | GI50 (MDA-MB-231) | GI50 (SK-OV-3) | GI50 (OVCAR-8) | GI50 (SNB-75) | GI50 (U-251) | GI50 (A549) | GI50 (UACC-257) | GI50 (NCI-H522) | GI50 (Hs-578T) | GI50 (SK-MEL-5) | GI50 (HCT-15) [µM] | GI50 (DU-145) | GI50 (K562) | GI50 (OVCAR-3) |
| --- | --- | --- | --- | --- | --- | --- | --- | --- | --- | --- | --- | --- | --- | --- | --- | --- | --- | --- |
| Cc1c(S(=O)(=O)O)ccc(/N=N/c2c(O)c(C(=O)O)cc3ccccc23)c1Cl | > 100 µM (inactive) | > 100 µM (inactive) | > 100 µM (inactive) | > 100 µM (inactive) | > 49.8 µM (inactive) | > 100 µM (inactive) | > 100 µM (inactive) | > 100 µM (inactive) | > 92.5 µM (inactive) | > 100 µM (inactive) | > 100 µM (inactive) | > 100 µM (inactive) | > 62.1 µM (inactive) | > 100 µM (inactive) | > 100 | > 100 µM (inactive) | > 100 µM (inactive) | > 100 µM (inactive) |
| CC(=O)c1c2c(cc3c1CC1(Cc4cc5c(cc4C1)C(=O)CCC5)C3)CCCC2 (configuration not stated) | – | 5.25 µM (inactive) | 1.77 µM (inactive) | 2.88 µM (inactive) | 9.25 µM (inactive) | > 54.8 µM (inactive) | 13.9 µM (inactive) | 2.92 µM (inactive) | 10.8 µM (inactive) | > 21.5 µM (inactive) | 3.34 µM (inactive) | 4.31 µM (inactive) | > 29.9 µM (inactive) | 2.21 µM (inactive) | 3.94 | 20.9 µM (inactive) | 1.76 µM (inactive) | 7.59 µM (inactive) |
| CC(=O)O[C@H]1C[C@H]2[C@@H](OC(C)=O)/C=C3\C[C@](C)(C(=O)[C@H](O)C(=C1C)C2(C)C)[C@@H](O)C[C@@H]3OC(=O)[C@H](O)[C@H](c1ccccc1)N(C)C | > 100 µM (inactive) | > 100 µM (inactive) | > 100 µM (inactive) | – | > 100 µM (inactive) | > 100 µM (inactive) | > 100 µM (inactive) | > 100 µM (inactive) | > 100 µM (inactive) | > 100 µM (inactive) | > 100 µM (inactive) | > 100 µM (inactive) | > 100 µM (inactive) | > 100 µM (inactive) | > 100 | > 100 µM (inactive) | > 100 µM (inactive) | > 100 µM (inactive) |
| COC(=O)[C@H](Cc1ccccc1)NC(=O)N(CCNC(=O)OC(C)(C)C)c1ccccc1 | > 100 µM (inactive) | > 100 µM (inactive) | > 100 µM (inactive) | > 100 µM (inactive) | > 100 µM (inactive) | > 100 µM (inactive) | > 100 µM (inactive) | > 100 µM (inactive) | > 100 µM (inactive) | > 100 µM (inactive) | – | > 100 µM (inactive) | > 100 µM (inactive) | > 100 µM (inactive) | > 100 | > 100 µM (inactive) | > 100 µM (inactive) | > 100 µM (inactive) |
| O=C1CSC(c2cc3cc(Br)ccc3nc2Cl)N1c1ccc(Cl)cc1 (configuration not stated) | 5.87 µM (inactive) | 34.3 µM (inactive) | 7.71 µM (inactive) | 14.7 µM (inactive) | 33.1 µM (inactive) | 43.3 µM (inactive) | 44.1 µM (inactive) | 52.2 µM (inactive) | – | 28.1 µM (inactive) | 14.8 µM (inactive) | 17.8 µM (inactive) | 35.9 µM (inactive) | 14 µM (inactive) | 16.8 | 34.4 µM (inactive) | 7.33 µM (inactive) | 16.7 µM (inactive) |
| Clc1ccc(-c2ccc(-c3nn4c(CNc5ccccc5)nnc4s3)o2)c(Cl)c1 | – | > 100 µM (inactive) | 46.7 µM (inactive) | 90.4 µM (inactive) | 69.8 µM (inactive) | > 100 µM (inactive) | 68.7 µM (inactive) | 50.7 µM (inactive) | > 100 µM (inactive) | 72.3 µM (inactive) | 53.1 µM (inactive) | 57.8 µM (inactive) | > 100 µM (inactive) | 33.4 µM (inactive) | 48.1 | > 100 µM (inactive) | 43.7 µM (inactive) | 45.2 µM (inactive) |
| CNC(=O)Nc1ccccc1 | > 100 µM (inactive) | > 100 µM (inactive) | > 100 µM (inactive) | > 100 µM (inactive) | > 100 µM (inactive) | – | > 100 µM (inactive) | > 74.6 µM (inactive) | > 100 µM (inactive) | > 100 µM (inactive) | > 100 µM (inactive) | > 100 µM (inactive) | > 100 µM (inactive) | > 100 µM (inactive) | > 100 | > 100 µM (inactive) | > 100 µM (inactive) | > 100 µM (inactive) |
| O=C1/C(=C/c2ccccc2)Oc2cc(O)ccc21 | > 100 µM (inactive) | > 100 µM (inactive) | > 100 µM (inactive) | – | > 100 µM (inactive) | > 100 µM (inactive) | > 100 µM (inactive) | > 100 µM (inactive) | > 100 µM (inactive) | > 100 µM (inactive) | > 100 µM (inactive) | 70.3 µM (inactive) | > 100 µM (inactive) | > 100 µM (inactive) | > 100 | > 100 µM (inactive) | > 100 µM (inactive) | > 100 µM (inactive) |
